In patent publication US9302989B2 (priority 2010, dated 2016):
pIC50: −log10 of the molar value.

Biological target: NAMPT (Homo sapiens (Human), UniProt P43490)
Test: biochemical
Description: Determination of the utility of compounds having Formula (I) as binders to and inhibitors of NAMPT was performed using a Time-Resolved Fluorescence Resonance Energy Transfer (TR-FRET) binding assay.
Time-Resolved Fluorescence Resonance Energy Transfer (TR-FRET) Binding Assay of NAMPT
Plates were covered, and reactions were carried out for 2-3 hours. Plates were read with Envision (Laser Lantha low volume protocol) after 2 to 3 hours.

Sequence of NAMPT (P43490 whole entry, looked up): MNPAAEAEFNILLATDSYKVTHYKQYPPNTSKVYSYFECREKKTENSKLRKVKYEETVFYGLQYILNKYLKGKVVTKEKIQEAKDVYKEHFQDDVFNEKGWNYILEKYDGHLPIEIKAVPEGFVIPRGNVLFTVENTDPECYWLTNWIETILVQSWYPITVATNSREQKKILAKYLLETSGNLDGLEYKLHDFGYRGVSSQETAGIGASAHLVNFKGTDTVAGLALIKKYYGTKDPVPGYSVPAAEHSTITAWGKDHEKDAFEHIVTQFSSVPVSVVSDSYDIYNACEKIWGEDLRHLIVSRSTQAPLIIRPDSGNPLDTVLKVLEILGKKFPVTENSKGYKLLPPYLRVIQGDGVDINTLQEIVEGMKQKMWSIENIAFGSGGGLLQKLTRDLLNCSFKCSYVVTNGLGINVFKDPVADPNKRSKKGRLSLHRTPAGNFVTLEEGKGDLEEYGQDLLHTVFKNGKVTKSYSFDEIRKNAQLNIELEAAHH

CC(C)CCC(=O)Nc1ccc(NC(=O)N2Cc3ccccc3C2)cc1 [Example 294, N-{4-[(4-methylpentanoyl)amino]phenyl}-1,3-dihydro-2H-isoindole-2-carboxamide]
pIC50: 8.09
